Test results taken from patent publication US20230331737A1, “MTORC1 MODULATORS AND USES THEREOF” (Aeovian Pharmaceuticals, Inc., priority 2020, published 2023).

Columns and labels:
[1] = biological target: FKBP12 ternary complex with FRB (Homo sapiens, UniProt P42345+P62942); assay: SPR assay to characterize ternary complex formation with FKBP12 (FRB injected over compound-saturated FKBP12); type: binding; settings: FRB dilutions with 100 nM test compound over immobilized FKBP12
Experimental: Biotinylated avi-FKBP12 was immobilized on a streptavidin chip (Cytiva Series S SA) using a Biacore 8K or 8k+ (Cytiva). To achieve an immobilization level of 100 RU, 0.3 μg/ml biotinylated avi-FKBP12 were injected for 80 sec at a flow rate of 10 μl/min. Serial dilution of FRB was prepared (12 concentrations, 3-fold dilutions, 0.00011-20 μM) and supplemented with 100 nM of a test compound. A-B-A injection mode was used to ensure saturation immobilized FKBP12 with respective test compound. 100 nM solution of the respective test compound was injected before FRB injection for 120 sec and during dissociation for 420 sec. The FRB dilutions were then injected 120 seconds contact time with increasing concentrations. Rapamycin was used as reference sample. 50 mM HEPES pH 7.5, 150 mM NaCl, 2 mM MgCl2, 1 mM DTT, 0.05% Tween-20, 1% DMSO was used as running buffer at a flow rate of 30 μl/min. The multi-cycle kinetics data were fit to a 1:1 binding model to measure the association rate ka (1/Ms), the dissociation rate kd (1/s) and the affinity Kd (M). In case of fast association and dissociation, steady state affinity analysis following the law of mass action was used to determine the affinity Kd (M).

FKBP12 = FKBP12 (Homo sapiens, UniProt P62942); assay: SPR assay to determine binding affinity to FKBP12 (direct binding); settings: immobilized biotinylated avi-FKBP12, single-cycle kinetics
Experimental: SPR Assay to Determine Binding Affinity to FKBP12.
Biotinylated avi-FKBP12 was immobilized on a streptavidin chip (Cytiva Series S SA) using a Biacore 8K or 8k+ (Cytiva). […] Test compounds described in Table 11 were diluted in DMSO to 100× working concentration. Each test compound was 100-fold diluted in 50 mM HEPES pH 7.5, 150 mM NaCl, 2 mM MgCl2, 1 mM DTT, 0.05% Tween-20 and a serial dilution prepared (9 concentrations, 3-fold dilutions, 0.08-500 nM). […] The compound dilutions were then injected at 100 uL/min for 120 seconds contact time in sequence with increasing concentrations. Dissociation was monitored for 3600 seconds. 50 mM HEPES pH 7.5, 150 mM NaCl, 2 mM MgCl2, 1 mM DTT, 0.05% Tween-20, 1% DMSO was used as running buffer. The single-cycle kinetics data were fit to a 1:1 binding model to measure the association rate ka (1/Ms), the dissociation rate kd (1/s) and the affinity Kd (M).

mTORC1 = biological target: T1, mTORC1 (Homo sapiens, UniProt P42345+P62942); assay: mTORC1 inhibition in PC-3 cells, AlphaLISA of p70S6K pT389 levels; type: cell-based; settings: mTORC1 as measured by inhibition of p70S6K pT389 levels, read-out: mTROC1 IC50
T1 construct: endogenous in cells; host or cells: PC-3 cells
Experimental: mTORC1 inhibition was determined via analysis of phosphorylation levels of Phospho-p70 S6 kinase (p70S6K pT389) and Phospho-S6 Ribosomal Protein (pRPS6 pS240/pS244) with the corresponding AlphaLISA kits (PerkinElmer Alpha SF Ultra™ Multiplex phospho (Thr389)/total p70 S6K Assay Kit (Eu/Tb) and AlphaLISA SF Ultra™ p-Ribosomal Protein S6 (Ser240/244) Assay Kit).
%−activity=100*((Sample−Low control)/(High control−Low control))

Sequence of FKBP12 (P62942 whole entry, species assumed): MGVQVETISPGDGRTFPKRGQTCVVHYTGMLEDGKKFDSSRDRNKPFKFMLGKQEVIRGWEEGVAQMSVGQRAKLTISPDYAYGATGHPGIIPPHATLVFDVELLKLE

SMILES	Kd [1]	Kd (FKBP12)	IC50 (mTORC1)
COCCO[C@H]1C[C@@H]2CC[C@@H](C)[C@@](O)(O2)C(=O)C(=O)N2CCCCC2C(=O)O[C@H]([C@H](C)C[C@@H]2CC[C@@H](OCCCN3CCN(C)CC3)[C@H](OC)C2)CC(=O)[C@H](C)/C=C(\C)[C@@H](O)[C@@H](OC)C(=O)[C@H](C)C[C@H](C)/C=C/C=C/C=C/1C (relative stereo) [Compound 431, (1R,9S,12S,15R,16E,18R,19R,21R,23S,24E,26E,28E,30S*,32S,35R)-1,18-dihydroxy-19-methoxy-30-(2-methoxyethoxy)-12-[(1R)-2-[(1S,3R,4R)-3-methoxy-4-[3-(4-methylpiperazin-1-yl)propoxy]cyclohexyl]-1-methyl-ethyl]-15,17,21,23,29,35-hexamethyl-11,36-dioxa-4-azatricyclo[30.3.1.0^4,9]hexatriaconta-16,24,26,28-tetraene-2,3,10,14,20-pentone]	< 500 nM	0.3 to 1 nM	< 0.8 nM
CO[C@@H]1C[C@H](C[C@@H](C)[C@@H]2CC(=O)[C@H](C)/C=C(\C)[C@@H](O)[C@@H](OC)C(=O)[C@H](C)C[C@H](C)/C=C/C=C/C=C(\C)[C@H](OCCCCO)C[C@@H]3CC[C@@H](C)[C@@](O)(O3)C(=O)C(=O)N3CCCC[C@H]3C(=O)O2)CC[C@H]1OCCCN1CCOCC1 [Compound 27, (1R,9S,12S,15R,16E,18R,19R,21R,23S,24E,26E,28E,30R,32S,35R)-1,18-dihydroxy-30-(4-hydroxybutoxy)-19-methoxy-12-[(1R)-2-[(1S,3R,4R)-3-methoxy-4-(3-morpholinopropoxy)cyclohexyl]-1-methyl-ethyl]-15,17,21,23,29,35-hexamethyl-11,36-dioxa-4-azatricyclo[30.3.1.04,9]hexatriaconta-16,24,26,28-tetraene-2,3,10,14,20-pentone]	500 to 1100 nM	< 0.3 nM	0.8 to 1.5 nM
COCCO[C@@H]1C[C@@H]2CC[C@@H](C)[C@@](O)(O2)C(=O)C(=O)N2CCCC[C@H]2C(=O)O[C@H]([C@H](C)C[C@@H]2CC[C@@H](OCCCO)[C@H](OC)C2)CC(=O)[C@H](C)/C=C(\C)[C@@H](O)[C@@H](OC)C(=O)[C@H](C)C[C@H](C)/C=C/C=C/C=C/1C [Compound 28, (1R,9S,12S,15R,16E,18R,19R,21R,23S,24E,26E,28E,30R,32S,35R)-1,18-dihydroxy-12-[(1R)-2-[(1S,3R,4R)-4-(3-hydroxypropoxy)-3-methoxy-cyclohexyl]-1-methyl-ethyl]-19-methoxy-30-(2-methoxyethoxy)-15,17,21,23,29,35-hexamethyl-11,36-dioxa-4-azatricyclo[30.3.1.04,9]hexatriaconta-16,24,26,28-tetraene-2,3,10,14,20-pentone]	500 to 1100 nM	> 1 nM	> 1.5 nM
COCCO[C@@H]1C[C@@H]2CC[C@@H](C)[C@@](O)(O2)C(=O)C(=O)N2CCCC[C@H]2C(=O)O[C@H]([C@H](C)C[C@@H]2CC[C@@H](OCCCN3CCN(C)CC3)[C@H](OC)C2)CC(=O)[C@H](C)/C=C(\C)[C@@H](O)[C@@H](OC)C(=O)[C@H](C)C[C@H](C)/C=C/C=C/C=C/1C [Compound 32, (1R,9S,12S,15R,16E,18R,19R,21R,23S,24E,26E,28E,30R,32S,35R)-1,18-dihydroxy-19-methoxy-30-(2-methoxyethoxy)-12-[(1R)-2-[(1S,3R,4R)-3-methoxy-4-[3-(4-methylpiperazin-1-yl)propoxy]cyclohexyl]-1-methyl-ethyl]-15,17,21,23,29,35-hexamethyl-11,36-dioxa-4-azatricyclo[30.3.1.04,9]hexatriaconta-16,24,26,28-tetraene-2,3,10,14,20-pentone]	> 1100 nM	0.3 to 1 nM	> 1.5 nM
COCCO[C@@H]1C[C@@H]2CC[C@@H](C)[C@@](O)(O2)C(=O)C(=O)N2CCCC[C@H]2C(=O)O[C@H]([C@H](C)C[C@@H]2CC[C@@H](OCCO)[C@H](OC)C2)CC(=O)[C@H](C)/C=C(\C)[C@@H](O)[C@@H](OC)C(=O)[C@H](C)C[C@H](C)/C=C/C=C/C=C/1C [Compound 40, (1R,9S,12S,15R,16E,18R,19R,21R,23S,24E,26E,28E,30R,32S,35R)-1,18-dihydroxy-12-[(1R)-2-[(1S,3R,4R)-4-(2-hydroxyethoxy)-3-methoxy-cyclohexyl]-1-methyl-ethyl]-19-methoxy-30-(2-methoxyethoxy)-15,17,21,23,29,35-hexamethyl-11,36-dioxa-4-azatricyclo[30.3.1.0^4,9]hexatriaconta-16,24,26,28-tetraene-2,3,10,14,20-pentone]	500 to 1100 nM	> 1 nM	> 1.5 nM
CO[C@@H]1C[C@H](C[C@@H](C)[C@@H]2CC(=O)[C@H](C)/C=C(\C)[C@@H](O)[C@@H](OC)C(=O)[C@H](C)C[C@H](C)/C=C/C=C/C=C(\C)[C@H](OCC3COC3)C[C@@H]3CC[C@@H](C)[C@@](O)(O3)C(=O)C(=O)N3CCCC[C@H]3C(=O)O2)CC[C@H]1OCCO [Compound 75, (1R,9S,12S,15R,16E,18R,19R,21R,23S,24E,26E,28E,30R,32S,35R)-1,18-dihydroxy-12-[(1R)-2-[(1S,3R,4R)-4-(2-hydroxyethoxy)-3-methoxy-cyclohexyl]-1-methyl-ethyl]-19-methoxy-15,17,21,23,29,35-hexamethyl-30-(oxetan-3-ylmethoxy)-11,36-dioxa-4-azatricyclo[30.3.1.04,9]hexatriaconta-16,24,26,28-tetraene-2,3,10,14,20-pentone]	> 1100 nM	0.3 to 1 nM	> 1.5 nM
CO[C@@H]1C[C@H](C[C@@H](C)[C@@H]2CC(=O)[C@H](C)/C=C(\C)[C@@H](O)[C@@H](OC)C(=O)[C@H](C)C[C@H](C)/C=C/C=C/C=C(\C)[C@@H](OC3CC3)C[C@@H]3CC[C@@H](C)[C@@](O)(O3)C(=O)C(=O)N3CCCC[C@H]3C(=O)O2)CC[C@H]1O [Compound 120, (1R,9S,12S,15R,16E,18R,19R,21R,23S,24E,26E,28E,30S,32S,35R)-30-(cyclopropoxy)-1,18-dihydroxy-12-[(1R)-2-[(1S,3R,4R)-4-hydroxy-3-methoxy-cyclohexyl]-1-methyl-ethyl]-19-methoxy-15,17,21,23,29,35-hexamethyl-11,36-dioxa-4-azatricyclo[30.3.1.04,9]hexatriaconta-16,24,26,28-tetraene-2,3,10,14,20-pentone]	< 500 nM	0.3 to 1 nM	< 0.8 nM
CO[C@@H]1C[C@H](C[C@@H](C)[C@@H]2CC(=O)[C@H](C)/C=C(\C)[C@@H](O)[C@@H](OC)C(=O)[C@H](C)C[C@H](C)/C=C/C=C/C=C(\C)[C@@H](OCCO)C[C@@H]3CC[C@@H](C)[C@@](O)(O3)C(=O)C(=O)N3CCCC[C@H]3C(=O)O2)CC[C@H]1OCCCN1CCOC[C@@H]1C [Compound 401, (1R,9S,12S,15R,16E,18R,19R,21R,23S,24E,26E,28E,30S,32S,35R)-1,18-dihydroxy-30-(2-hydroxyethoxy)-19-methoxy-12-[(1R)-2-[(1S,3R,4R)-3-methoxy-4-[3-[(3S)-3-methylmorpholin-4-yl]propoxy]cyclohexyl]-1-methyl-ethyl]-15,17,21,23,29,35-hexamethyl-11,36-dioxa-4-azatricyclo[30.3.1.04,9]hexatriaconta-16,24,26,28-tetraene-2,3,10,14,20-pentone]	< 500 nM		
CO[C@@H]1C[C@H](C[C@@H](C)[C@@H]2CC(=O)[C@H](C)/C=C(\C)[C@@H](O)[C@@H](OC)C(=O)[C@H](C)C[C@H](C)/C=C/C=C/C=C(\C)[C@@H](OCCO)C[C@@H]3CC[C@@H](C)[C@@](O)(O3)C(=O)C(=O)N3CCCC[C@H]3C(=O)O2)CC[C@H]1OCCCN1CCOC[C@H]1C [Compound 404, (1R,9S,12S,15R,16E,18R,19R,21R,23S,24E,26E,28E,30S,32S,35R)-1,18-dihydroxy-30-(2-hydroxyethoxy)-19-methoxy-12-[(1R)-2-[(1S,3R,4R)-3-methoxy-4-[3-[(3R)-3-methylmorpholin-4-yl]propoxy]cyclohexyl]-1-methyl-ethyl]-15,17,21,23,29,35-hexamethyl-11,36-dioxa-4-azatricyclo[30.3.1.04,9]hexatriaconta-16,24,26,28-tetraene-2,3,10,14,20-pentone]		< 0.3 nM	< 0.8 nM
